Results taken from ChEMBL document CHEMBL1128958, “Synthesis and biological activity of the neuronal calcium channel blocker 2-amino-1-(2,5-dimethoxyphenyl)-5-trifluoromethyl benzimidazole (NS-649)” (Bioorg Med Chem Lett, 1996).

What was measured:
Cavia porcellus = organism: Cavia porcellus; test: Effect on [Ca2+]-induced contractions in potassium-depolarized guinea pig taenia coli; assay type: functional
Mus musculus = organism: Mus musculus; test: Concentration that blocked potassium evoked release of [3H]D-aspartate from mouse cerebellar granule neurons; assay type: functional

IC50 (Mus musculus): ~2.4 µM
SMILES: COc1ccc(OC)c(-n2c(N)nc3cc(C(F)(F)F)ccc32)c1
Concentration (Cavia porcellus): 30 µM
